Results as given in ChEMBL document CHEMBL1201862, “PubChem BioAssay data set” (2004).
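Step 1: Grow cells in 96-well plates. Step 2: Expose to compound for 48 hours at 5 concentrations. Step 3: Interpolate endpoints linearly; if unreached, use highest concentration. GI50 is the concentration that inhibits growth by half.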 The source made the active and inactive calls. No stated cut-off is given here; in the data, active = GI50 up to about 1.1 µM and inactive = higher.

Legend:
Assay in all cases: DTP human tumour cell line panel, 48 h
COLO 205 = system: COLO 205
OVCAR-4 = system: OVCAR-4
TK-10 = system: TK-10
UO-31 = system: UO-31
M14 = system: M14
A498 = system: A498
786-0 = system: 786-0
EKVX = system: EKVX
ACHN = system: ACHN
HOP-62 = system: HOP-62
SK-MEL-28 = system: SK-MEL-28
RXF 393 = system: RXF 393
CAKI-1 = system: CAKI-1
DMS-114 = system: DMS-114
IGROV-1 = system: IGROV-1
UACC-62 = system: UACC-62
U-251 = system: U-251
HCC 2998 = system: HCC 2998
MDA-MB-435 = system: MDA-MB-435
NCI/ADR-RES = system: NCI/ADR-RES

Row | Structure (SMILES) | GI50 (COLO 205) | GI50 (OVCAR-4) | GI50 (TK-10) | GI50 (UO-31) | GI50 (M14) | GI50 (A498) | GI50 (786-0) | GI50 (EKVX) | GI50 (ACHN) | GI50 (HOP-62) | GI50 (SK-MEL-28) | GI50 (RXF 393) | GI50 (CAKI-1) | GI50 (DMS-114) | GI50 (IGROV-1) | GI50 (UACC-62) | GI50 (U-251) | GI50 (HCC 2998) | GI50 (MDA-MB-435) | GI50 (NCI/ADR-RES)
1 | N#CCc1ccc(/C(C#N)=C2/OC(=N)C(c3ccc(CC#N)cc3)C2=O)cc1 (configuration not stated) | > 100 µM (inactive) | > 100 µM (inactive) | > 100 µM (inactive) | > 100 µM (inactive) | > 100 µM (inactive) | > 100 µM (inactive) | > 100 µM (inactive) | > 100 µM (inactive) | > 100 µM (inactive) | > 100 µM (inactive) | > 100 µM (inactive) | > 100 µM (inactive) | > 100 µM (inactive) | > 100 µM (inactive) | > 100 µM (inactive) | > 100 µM (inactive) |  |  |  | 
2 | O=C(Nc1ccc(Cl)cc1Cl)OC(Cn1cncn1)c1ccc(Cl)cc1Cl (configuration not stated) | 17.2 µM (inactive) | 14.4 µM (inactive) |  | 13.2 µM (inactive) | 17.9 µM (inactive) | 20 µM (inactive) | 19 µM (inactive) | 16 µM (inactive) | 15.5 µM (inactive) | 19.5 µM (inactive) | 16.3 µM (inactive) | 16.9 µM (inactive) |  | 16 µM (inactive) | 16.9 µM (inactive) | 14.8 µM (inactive) | 16.1 µM (inactive) |  |  | 
3 | COC(=O)Cc1cc(OC)c(OC)cc1Br | > 100 µM (inactive) | > 100 µM (inactive) | > 100 µM (inactive) | > 100 µM (inactive) | > 100 µM (inactive) | > 100 µM (inactive) | > 100 µM (inactive) | > 100 µM (inactive) | > 100 µM (inactive) | > 100 µM (inactive) | > 100 µM (inactive) |  | > 100 µM (inactive) | > 100 µM (inactive) |  | > 100 µM (inactive) | > 100 µM (inactive) | > 100 µM (inactive) |  | 
4 | C[N+](C)(C)CC(=O)N/N=C/c1oc(-c2cccc([N+](=O)[O-])c2)c(-c2cccc([N+](=O)[O-])c2)c1[N+](=O)[O-] | > 100 µM (inactive) | > 100 µM (inactive) | > 100 µM (inactive) | 79.1 µM (inactive) | > 100 µM (inactive) | > 100 µM (inactive) | 48.1 µM (inactive) | > 100 µM (inactive) | > 100 µM (inactive) | > 100 µM (inactive) | 44.3 µM (inactive) | 76.9 µM (inactive) |  | 47.3 µM (inactive) | 95.5 µM (inactive) | 29.5 µM (inactive) |  | > 100 µM (inactive) |  | 
5 | CCCCCCCCCc1cc(=O)c2c(O)cccc2o1 | > 100 µM (inactive) | 50.7 µM (inactive) | 54 µM (inactive) | 37.1 µM (inactive) | 39.4 µM (inactive) |  | 51.4 µM (inactive) | 51.8 µM (inactive) | 42.7 µM (inactive) | > 100 µM (inactive) | 55.6 µM (inactive) | 53 µM (inactive) | 69.3 µM (inactive) | 33 µM (inactive) | 79.6 µM (inactive) | 58.2 µM (inactive) | 48.1 µM (inactive) | 65 µM (inactive) |  | 
6 | COc1c2c(cc3nc4ccccc4nc13)CC[C@H](NC(C)=O)c1cc(=O)c(SC)ccc1-2 | 0.283 µM (active) | 4.27 µM (inactive) | 8.07 µM (inactive) | 5.09 µM (inactive) | 0.55 µM (active) | 7.62 µM (inactive) | 0.506 µM (active) | 1.01 µM (active) | 4.15 µM (inactive) | 11.9 µM (inactive) | 12.7 µM (inactive) | 2.74 µM (inactive) | 5.62 µM (inactive) |  | 0.236 µM (active) | 0.437 µM (active) | 0.353 µM (active) | 1.25 µM (inactive) | 0.132 µM (active) | 12.5 µM (inactive)
7 | COCC(/N=C\N1CCCc2ccccc2[C@@H]1CCCCl)C(C)(C)C (some centres not stated) | 0.586 µM (active) | 1.97 µM (inactive) | 9.93 µM (inactive) | 12.2 µM (inactive) | 4.55 µM (inactive) | 13.2 µM (inactive) | 7.96 µM (inactive) | 17.5 µM (inactive) | 16.9 µM (inactive) | 15.3 µM (inactive) | > 100 µM (inactive) | 13.1 µM (inactive) | 1.58 µM (inactive) |  | 0.353 µM (active) | 10.3 µM (inactive) | 6.89 µM (inactive) | 13.3 µM (inactive) | 11.7 µM (inactive) | 0.392 µM (active)
8 | COC(=O)[C@H](Cc1ccc(OC(C)(C)C)cc1)N[C@H](C)C(=O)N[C@@H](Cc1ccccc1)C(=O)OCc1ccccc1 | 96.6 µM (inactive) | > 100 µM (inactive) | > 100 µM (inactive) | 14.8 µM (inactive) | 52.4 µM (inactive) | > 100 µM (inactive) | 54.3 µM (inactive) | > 100 µM (inactive) | 93.1 µM (inactive) | > 100 µM (inactive) | > 100 µM (inactive) | > 100 µM (inactive) | > 100 µM (inactive) |  | > 100 µM (inactive) | > 100 µM (inactive) | > 100 µM (inactive) | > 100 µM (inactive) | 82.8 µM (inactive) | > 100 µM (inactive)
9 | CC(=O)Nc1ccc(Cl)c(Cl)c1 | > 100 µM (inactive) |  | > 100 µM (inactive) | > 100 µM (inactive) | 40.4 µM (inactive) |  | > 100 µM (inactive) | > 100 µM (inactive) | > 100 µM (inactive) | > 100 µM (inactive) | > 100 µM (inactive) | > 100 µM (inactive) |  | > 100 µM (inactive) | > 100 µM (inactive) | > 100 µM (inactive) | > 100 µM (inactive) | > 100 µM (inactive) |  | 
10 | COc1cc(OC)cc(-c2cc(O)c3cc4c(cc3n2)OCO4)c1 | 0.192 µM (active) | 17.1 µM (inactive) | 1.74 µM (inactive) | 1.22 µM (inactive) | 0.239 µM (active) |  | 0.348 µM (active) | 12.6 µM (inactive) | 0.321 µM (active) | 0.486 µM (active) | 0.194 µM (active) |  | 0.309 µM (active) | 0.218 µM (active) | 0.389 µM (active) | 0.209 µM (active) | 0.221 µM (active) | 0.225 µM (active) |  | 
11 | NC1=NS(=O)(=O)Nc2[nH]c(-c3ccccc3)nc21 | > 100 µM (inactive) | > 100 µM (inactive) | > 100 µM (inactive) | > 100 µM (inactive) | > 100 µM (inactive) |  | > 100 µM (inactive) | > 100 µM (inactive) | > 100 µM (inactive) |  | > 100 µM (inactive) | > 100 µM (inactive) |  | > 100 µM (inactive) | > 100 µM (inactive) | > 100 µM (inactive) | > 100 µM (inactive) | > 100 µM (inactive) |  | 
12 | CCc1c(CNC2=NCCN2)c(CC)c(CNC2=NCCN2)c(CC)c1CNC1=NCCN1 | > 100 µM (inactive) | > 100 µM (inactive) | > 100 µM (inactive) | > 100 µM (inactive) | > 100 µM (inactive) | > 100 µM (inactive) | > 100 µM (inactive) | > 100 µM (inactive) | > 100 µM (inactive) | > 100 µM (inactive) | > 100 µM (inactive) | > 100 µM (inactive) | > 100 µM (inactive) |  | > 100 µM (inactive) | > 100 µM (inactive) | > 100 µM (inactive) | > 100 µM (inactive) | > 100 µM (inactive) | > 100 µM (inactive)
13 | CC(C)(C)N1Cc2ccccc2/C(=C/Sc2ccccc2)C1=O | 18.1 µM (inactive) | 7.01 µM (inactive) | 19 µM (inactive) | 12.3 µM (inactive) | 8.15 µM (inactive) | 20 µM (inactive) | 10.7 µM (inactive) | 16.8 µM (inactive) | 17.9 µM (inactive) | 17.3 µM (inactive) | 17.5 µM (inactive) | 16.2 µM (inactive) | 16.6 µM (inactive) |  | 10.1 µM (inactive) | 7.69 µM (inactive) | 13.6 µM (inactive) | 18.2 µM (inactive) | 7.38 µM (inactive) | 14.1 µM (inactive)
14 | CC(=O)c1c(P(=O)(OC(C)C)OC(C)C)nn(-c2ccc([N+](=O)[O-])cc2)c1C | > 100 µM (inactive) | > 100 µM (inactive) | > 100 µM (inactive) | > 100 µM (inactive) | > 100 µM (inactive) | > 100 µM (inactive) |  | > 100 µM (inactive) | > 100 µM (inactive) | > 100 µM (inactive) | > 100 µM (inactive) |  | > 100 µM (inactive) | > 100 µM (inactive) | > 100 µM (inactive) | > 100 µM (inactive) | > 100 µM (inactive) | > 100 µM (inactive) |  | 
15 | O=C1NC(=O)C(F)(n2cc(F)c(=O)[nH]c2=O)C(O)N1 (configuration not stated) | > 10 µM (inactive) | > 10 µM (inactive) | > 10 µM (inactive) | > 10 µM (inactive) | > 10 µM (inactive) | > 10 µM (inactive) | > 10 µM (inactive) | > 10 µM (inactive) | > 10 µM (inactive) | > 10 µM (inactive) | > 10 µM (inactive) | > 10 µM (inactive) | > 10 µM (inactive) |  | > 10 µM (inactive) | > 10 µM (inactive) | > 10 µM (inactive) | > 10 µM (inactive) | > 10 µM (inactive) | > 10 µM (inactive)
16 | CC(C)N(C(=O)C12C3C4C1C1C2C3C41C(=O)O)C(C)C (configuration not stated) | > 100 µM (inactive) | > 100 µM (inactive) | > 100 µM (inactive) | > 100 µM (inactive) | > 100 µM (inactive) | > 100 µM (inactive) | > 100 µM (inactive) | > 100 µM (inactive) | > 100 µM (inactive) | > 100 µM (inactive) | > 100 µM (inactive) |  | > 100 µM (inactive) | > 100 µM (inactive) | > 100 µM (inactive) | > 100 µM (inactive) |  | > 100 µM (inactive) |  | 
